According to patent publication US20100227853A1, “INHIBITORS OF CYCLIC AMP PHOSPHODIESTERASES” (Trustees of Boston College, priority 2008, published 2010):

Experiments:
[1] = biological target: PDE7A (Homo sapiens, UniProt Q13946); assay: 5FOA growth assay in fission yeast strain expressing PDE7A; type: cell-based; design: targets used in the assays are full-length proteins (as opposed to simply the catalytic domain); expressed in transfected cells; host or cells: Schizosaccharomyces pombe, PDE gene integrated in place of cgs2; details: for Composite Z score, PDE7A: high throughput 5FOA growth screen; for 2 Assay (2 uM), 7A / 1 Assay (20 uM) 7A: PDE 7A
Procedure, shortened: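 Growth stimulation, reported as composite Z scores, was read as OD600 after 48 h at 30 °C in 5FOA medium. Before this, reporter (fbp1-ura4) yeast were grown at 30 °C in EMM with 0–2.5 mM cAMP or 0.5/1.0 mM cGMP to repress the reporter, then exposed to 100 nl pinned compound (stocks generally 10 mM).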

[2] = biological target: T1, PDE4B3 (Mus musculus, UniProt Q8VBU5); assay: 5FOA growth assay in fission yeast strain expressing PDE4B3; type: cell-based, Murine; details: for Composite Z score, PDE4B3: high throughput 5FOA growth screen; for 2 Assay (2 uM), 4B3 / 1 Assay (20 uM) 4B3: PDE 4B3
T1 construct: targets used in the assays are full-length proteins (as opposed to simply the catalytic domain); expressed in transfected cells; host or cells: Schizosaccharomyces pombe, PDE gene integrated in place of cgs2
T1 sequence (Q8VBU5 1-721): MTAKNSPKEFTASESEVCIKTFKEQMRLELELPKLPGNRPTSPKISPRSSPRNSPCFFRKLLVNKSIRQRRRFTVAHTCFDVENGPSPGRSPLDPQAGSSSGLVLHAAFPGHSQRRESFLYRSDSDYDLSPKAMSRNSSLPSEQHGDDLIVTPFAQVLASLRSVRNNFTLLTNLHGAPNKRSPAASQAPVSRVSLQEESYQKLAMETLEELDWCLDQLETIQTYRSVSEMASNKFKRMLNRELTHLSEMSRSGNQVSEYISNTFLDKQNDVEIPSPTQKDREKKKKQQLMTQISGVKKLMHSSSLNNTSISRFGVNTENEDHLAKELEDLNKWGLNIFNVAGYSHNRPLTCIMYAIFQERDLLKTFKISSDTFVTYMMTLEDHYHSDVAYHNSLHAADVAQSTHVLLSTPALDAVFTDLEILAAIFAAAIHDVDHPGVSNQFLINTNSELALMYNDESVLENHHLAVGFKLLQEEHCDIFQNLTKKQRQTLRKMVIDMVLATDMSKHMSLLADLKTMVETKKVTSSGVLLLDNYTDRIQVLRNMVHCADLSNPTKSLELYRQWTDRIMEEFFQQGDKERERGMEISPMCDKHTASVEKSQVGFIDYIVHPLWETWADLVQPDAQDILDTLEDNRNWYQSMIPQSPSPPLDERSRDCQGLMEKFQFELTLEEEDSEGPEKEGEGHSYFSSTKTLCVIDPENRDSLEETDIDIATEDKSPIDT
Procedure, shortened: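 Readout is OD600 after 48 h at 30° C in 5FOA medium, starting from 0.5–4×10^5 cells/ml; 5 mM cAMP served as positive control. Yeast expressing mouse PDE4A1 or PDE4B3 with an fbp1-ura4 reporter was first grown to exponential phase in EMM plus 0.5–2.5 mM cAMP. Hits were scored by composite Z scores.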

PDE7A, sequence (Q13946 whole entry, the tested form may be a part): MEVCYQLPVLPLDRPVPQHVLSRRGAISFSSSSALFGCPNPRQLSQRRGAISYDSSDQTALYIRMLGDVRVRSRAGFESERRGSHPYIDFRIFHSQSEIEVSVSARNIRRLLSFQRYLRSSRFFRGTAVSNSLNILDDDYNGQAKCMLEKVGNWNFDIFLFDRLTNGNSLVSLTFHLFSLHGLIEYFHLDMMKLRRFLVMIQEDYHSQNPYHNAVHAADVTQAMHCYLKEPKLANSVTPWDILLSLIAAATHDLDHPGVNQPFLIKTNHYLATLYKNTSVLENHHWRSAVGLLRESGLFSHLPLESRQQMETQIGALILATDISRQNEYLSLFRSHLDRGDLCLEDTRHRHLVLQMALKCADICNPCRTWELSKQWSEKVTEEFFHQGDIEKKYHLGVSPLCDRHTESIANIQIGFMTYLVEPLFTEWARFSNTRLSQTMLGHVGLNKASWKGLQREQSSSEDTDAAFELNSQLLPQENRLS

| Structure (SMILES) | Composite Z score, PDE7A [1] | Composite Z score, PDE4B3 [2] | 2 Assay (2 uM), 7A [1] | 1 Assay (20 uM) 7A [1] | 2 Assay (2 uM), 4B3 [2] | 1 Assay (20 uM) 4B3 [2] |
| --- | --- | --- | --- | --- | --- | --- |
| c1nc(NCCCN2CCOCC2)c2c3c(sc2n1)CCCC3 [Compound 2051N22] | −0.445 | −0.998 |  |  |  |  |
| CCNc1nc(SCC(=O)OCC)nc2sc3c(c12)CCC(C)C3 (stereo not shown) [Compound 2053H16] | 0.7038 | 9.0572 |  |  |  |  |
| CCNc1nc(SCC(=O)NC(=O)NCc2ccccc2)nc2sc3c(c12)CCN(C)C3 [Compound 2054N05] | 0.1836 | 0.0285 |  |  |  |  |
| CCNc1nc(SCc2ccc(Cl)cc2)nc2sc3c(c12)CCN(C)C3 [Compound 2054P05] | 1.181 | −0.211 |  |  |  |  |
| COc1ccc2c(c1)[C@@]1(C)CCC[C@](C)(CO)C1CC2 (stereo partly shown) [Compound 2067M03] |  |  | 8.65 | 104.31 | 19.00 | 13.34 |
| Cc1ccc2c(c1)CCC1CC(=O)CC[C@]21C (stereo partly shown) [Compound 2158J12] |  |  | 29.01 | 74.45 | 8.18 | 37.13 |
